Measurements published in patent US10640545B2 (THE GOVERNORS OF THE UNIVERSITY OF ALBERTA, priority 2017, dated 2020).
Where a SMILES comes first, the peptide text is derived from it. [ ]: non-standard residue; d: D form. Phe(4-Br) = N[C@@H](Cc1ccc(Br)cc1)C(=O)O; NMeL = CN[C@@H](CC(C)C)C(=O)O; Nle = CCCC[C@H](N)C(=O)O; Aib = CC(C)(N)C(=O)O

Experiments:
[1] = target: Recombinant Human Neprilysin (Homo sapiens, UniProt P08473); test: Neprilysin qualitative cleavage assay (MALDI-TOF); conditions: rhNEP 2 ng/μL, 37° C., first degradation products by MALDI-TOF
Recombinant Human Neprilysin, sequence (P08473 whole entry): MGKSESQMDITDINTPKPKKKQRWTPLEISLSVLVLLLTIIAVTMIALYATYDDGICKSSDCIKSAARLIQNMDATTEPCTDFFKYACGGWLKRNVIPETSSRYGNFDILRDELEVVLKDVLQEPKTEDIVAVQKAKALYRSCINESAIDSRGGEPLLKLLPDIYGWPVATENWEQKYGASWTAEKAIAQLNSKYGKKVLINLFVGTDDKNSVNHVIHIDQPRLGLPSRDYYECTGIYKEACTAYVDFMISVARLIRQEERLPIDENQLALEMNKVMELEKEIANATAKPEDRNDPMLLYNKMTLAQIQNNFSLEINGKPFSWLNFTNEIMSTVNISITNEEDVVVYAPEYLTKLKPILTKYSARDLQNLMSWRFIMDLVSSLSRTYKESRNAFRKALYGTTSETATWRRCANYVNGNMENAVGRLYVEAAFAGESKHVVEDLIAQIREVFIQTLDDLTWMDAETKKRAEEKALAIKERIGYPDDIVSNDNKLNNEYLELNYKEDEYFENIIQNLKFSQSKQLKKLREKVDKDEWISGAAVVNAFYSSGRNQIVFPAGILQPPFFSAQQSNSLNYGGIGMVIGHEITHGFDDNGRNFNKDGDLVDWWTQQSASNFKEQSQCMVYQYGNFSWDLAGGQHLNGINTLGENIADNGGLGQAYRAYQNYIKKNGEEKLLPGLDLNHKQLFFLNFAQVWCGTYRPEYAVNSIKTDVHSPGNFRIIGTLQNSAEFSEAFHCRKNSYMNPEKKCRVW
Protocol: Native apelin-17 (2) and apelin peptides 5, 54, 56, 57, 58 and 59 were dissolved in Milli-Q water (1 mM). Recombinant Human Neprilysin (rhNEP, Sino Biological) was reconstituted in Tris buffer (100 mM Tris, 100 mM NaCl, 10 mM ZnCl2, pH 7.5). To initiate the assays, rhNEP was diluted in Tris buffer to a 2 ng/μL final concentration, and pre-incubated at 37° C. for 10 minutes prior to the addition of 5 μL of apelin peptide (1 mM). Aliquots (1 μL) were taken at 1, 2, 4, 6, 12, 24, 36, and 48 hours and analyzed with MALDI-TOF mass spectrometry to qualitatively determine the time point at which degradation products could be observed.

[2] = target: Human plasma kallikrein KLKB1 (Homo sapiens, UniProt P03952); test: Plasma kallikrein KLKB1 qualitative cleavage assay (MALDI-TOF); conditions: KLKB1, 37° C., first degradation products by MALDI-TOF
Human plasma kallikrein KLKB1, sequence (P03952 20-638): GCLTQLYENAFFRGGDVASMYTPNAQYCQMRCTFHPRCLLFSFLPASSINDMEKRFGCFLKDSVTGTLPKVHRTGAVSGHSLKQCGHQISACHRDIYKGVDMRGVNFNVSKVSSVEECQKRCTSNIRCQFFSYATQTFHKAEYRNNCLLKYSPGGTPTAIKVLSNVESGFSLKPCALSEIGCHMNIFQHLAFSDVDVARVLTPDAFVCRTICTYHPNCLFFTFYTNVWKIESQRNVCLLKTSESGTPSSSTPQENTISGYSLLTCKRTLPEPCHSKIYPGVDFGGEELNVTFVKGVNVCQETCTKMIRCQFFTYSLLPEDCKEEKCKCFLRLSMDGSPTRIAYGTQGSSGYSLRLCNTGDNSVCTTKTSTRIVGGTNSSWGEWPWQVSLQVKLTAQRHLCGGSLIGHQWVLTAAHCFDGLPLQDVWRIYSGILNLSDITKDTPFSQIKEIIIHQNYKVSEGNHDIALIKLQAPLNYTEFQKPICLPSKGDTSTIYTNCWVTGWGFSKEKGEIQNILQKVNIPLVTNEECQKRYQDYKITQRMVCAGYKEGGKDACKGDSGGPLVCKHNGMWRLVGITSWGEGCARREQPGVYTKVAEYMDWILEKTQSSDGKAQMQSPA
Protocol: Native apelin-17 (2) and apelin peptides 5, 56, 57, 58 and 59 were dissolved in Milli-Q water (1 mM). Human plasma kallikrein KLKB1 were each reconstituted in Tris buffer (100 mM TrisHCl, 10 mM CaCl2), 150 mM NaCl) and diluted with Tris buffer (50 mM TrisHCl, 250 mM NaCl) to give a KLKB1 concentration of […]. The KLKB1 enzyme was then preincubated at 37° C. for 10 minutes prior to the addition of 5 μL of apelin peptide (1 mM). Aliquots (1 μL) were taken at 1, 2, 4, 6, 12, 24, 36, and 48 hours and analyzed with MALDI-TOF mass spectrometry to qualitatively determine the time point at which degradation products could be observed (Table 4).

C57BL/6 mice = test: Cardiac allograft vasculopathy, heterotopic heart transplant; format: in vivo; conditions: male hearts into female B6 mice, 3 mg/kg/d intraperitoneal for 4 weeks from 2 weeks after transplant
Protocol: B6 male hearts were transplanted heterotopically into […] female B6 of the recipient mice, starting 2 weeks after transplant. Synthesized apelin peptide (Apelin-NMe17A2) (11), was given by daily intraperitoneal injection (3 mg/kg/d) for 4 weeks. Female mice raise immune response against the male HY antigen, injure the coronary arteries of the transplanted heart based on Verhoeff-Van Gieson staining (FIG. 17) leading to progressive expansion of the arterial intima occluding the arterial lumen (FIG. 18).
C57BL/6J mice were purchased from Jackson Laboratories. The C57BL/6 mice subjected to surgery were 11-14 weeks old. All animal experiments were carried out according to the Canadian Council on Animal Care Guidelines. Animal protocols were approved by the Animal Care and Use Committee at the University of Alberta. Hearts from 12-14 weeks male wild-type (WT) donors were transplanted heterotopically to the abdomen of the female WT recipients. […] Cardiac allograft vasculopathy (CAV) was induced due to the presence of HY-minor histocompatibility antigen-directed, cell-mediated allo-immune response against the male donor hearts. The heart grafts were harvested six weeks after transplantation. Intima area, endothelial loss in medium to large-sized arteries, inflammatory cellular infiltration, microvasculature density and tip cell markers using Immunohistochemistry and qPCR were characterized.

in vitro = conditions: human, plasma
NEP = NEP (Homo sapiens, UniProt P08473); test: Neprilysin inhibition assay (degradation of 1 after preincubation with peptide); format: biochemical; set-up: purchased Sino Biological; conditions: preincubation of NEP with equimolar peptide
NEP, sequence (P08473 whole entry): as the sequence (P08473 whole entry) above
Protocol: This experiment investigates the ability of synthetic peptides 8-19 to inhibit the inherent proteolytic activity of NEP.
Assays were performed in duplicate (n=2) for each time point.

SMILES | Degradation Onset Timepoint with NEP [1] [min] | Degradation Onset Timepoint with KLKB1 [2] [min] | transplant arteriopathy (intima/lumen of coronary arteries) (C57BL/6 mice) | remaining at 0.5 h, 80 µM (in vitro) [%] | remaining at 1 h, 80 µM (in vitro) [%] | inhibition of the proteolytic activity of NEP (NEP)
CSCC[C@H](NC(=O)[C@@H]1CCCN1C(=O)CNC(=O)[C@H](CCCCN)NC(=O)[C@H](Cc1cnc[nH]1)NC(=O)[C@H](CO)NC(=O)[C@H](CC(C)C)NC(=O)[C@H](CCCNC(=N)N)NC(=O)[C@@H]1CCCN1C(=O)[C@H](CCCNC(=N)N)NC(=O)[C@H](CCC(N)=O)NC(=O)[C@H](CCCNC(=N)N)NC(=O)[C@H](CCCNC(=N)N)NC(=O)[C@H](Cc1ccccc1)NC(=O)[C@@H](N)CCCCN)C(=O)N1CCC[C@H]1C(=O)N[C@@H](Cc1ccccc1)C(=O)O [Peptide 2, reference compound] | <30 | <30 | – | – | – | –
CCCC[C@H](NC(=O)[C@@H]1CCCN1C(=O)CNC(=O)[C@H](CCCCN)NC(=O)[C@H](Cc1c[nH]cn1)NC(=O)[C@H](CO)NC(=O)[C@H](CC(C)C)N(C)C(=O)[C@H](CCCNC(=N)N)NC(=O)[C@@H]1CCCN1C(=O)[C@H](CCCNC(=N)N)NC(=O)[C@H](CCC(N)=O)NC(=O)[C@H](CCCNC(=N)N)NC(=O)[C@H](CCCNC(=N)N)NC(=O)[C@H](Cc1ccccc1)NC(=O)[C@@H](N)CCCCN)C(=O)NC(C)(C)C(=O)N[C@@H](Cc1ccc(Br)cc1)C(=O)O [Peptide 11] (H-KFRRQRPR[NMeL]SHKGP[Nle][Aib][Phe(4-Br)]-OH; C-terminus assumed) | – | – | mitigates arteriopathy | 49 ± 10 | 47 ± 7 | no ability to inhibit the inherent activity of NEP
